Data from PubChem BioAssay AID1963860 (Molecular Pharmacology Branch, DTP, NCI, 2024).
pIC50: −log10 of the molar value.

Tested on: CN0375-F725-PDC KRAS spheroid viability
Assay: Anticancer human tumor CN0375-F725-PDC patient-derived colon carcinoma cell line growth inhibition [KRAS2]
Settings: spheroids with HUVEC and MSC; for viability, T/C: stronger effect = lower value; active = viability on the fitted dose curve at most 10% of control; inactive = the rest
Procedure, shortened: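 Combination screen of spheroid viability in tumor-cell co-cultures with endothelial (HUVEC) and mesenchymal stem cell stroma. Each agent was tested in half-log dilutions, topping at clinical Cmax or at 10 microM without a known Cmax.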

[1] = curve of first compound, second compound 0.1 µM
[2] = curve of first compound, second compound 0.316 µM
[3] = curve of first compound, second compound 1 µM
[4] = curve of first compound, second compound 3.16 µM
[5] = curve of first compound, second compound 10 µM
[6] = second compound 0.1 µM, first compound 0.0316 µM
[7] = second compound 0.1 µM, first compound 0.1 µM
[8] = second compound 0.1 µM, first compound 0.316 µM
[9] = second compound 0.1 µM, first compound 1 µM
[10] = second compound 0.1 µM, first compound 3.16 µM
[11] = second compound 0.1 µM, first compound 10 µM
[12] = second compound 0.316 µM, first compound 0.0316 µM
[13] = second compound 0.316 µM, first compound 0.1 µM
[14] = second compound 0.316 µM, first compound 0.316 µM
[15] = second compound 0.316 µM, first compound 1 µM
[16] = second compound 0.316 µM, first compound 3.16 µM
[17] = second compound 0.316 µM, first compound 10 µM
[18] = second compound 1 µM, first compound 0.0316 µM
[19] = second compound 1 µM, first compound 0.1 µM
[20] = second compound 1 µM, first compound 0.316 µM
[21] = second compound 1 µM, first compound 1 µM
[22] = second compound 1 µM, first compound 3.16 µM
[23] = second compound 1 µM, first compound 10 µM
[24] = second compound 3.16 µM, first compound 0.0316 µM
[25] = second compound 3.16 µM, first compound 0.1 µM
[26] = second compound 3.16 µM, first compound 0.316 µM
[27] = second compound 3.16 µM, first compound 1 µM
[28] = second compound 3.16 µM, first compound 3.16 µM
[29] = second compound 3.16 µM, first compound 10 µM
[30] = second compound 10 µM, first compound 0.0316 µM
[31] = second compound 10 µM, first compound 0.1 µM
[32] = second compound 10 µM, first compound 0.316 µM
[33] = second compound 10 µM, first compound 1 µM
[34] = second compound 10 µM, first compound 3.16 µM
[35] = second compound 10 µM, first compound 10 µM
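Also: spheroids exposed to agents for 7 days.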

CCNC(=O)CC1N=C(c2ccc(Cl)cc2)c2cc(OC)ccc2-n2c(C)nnc21 (configuration not stated) + COc1cc2nc(C)nc(NC(C)c3cc(N)cc(C(F)(F)F)c3)c2cc1OC1CCOC1
5.14: pIC50 [3]
5.07: pIC50 [1]
inactive: viability, T/C [6] 97.9% | viability, T/C [7] 88.2% | viability, T/C [8] 77.7% | viability, T/C [9] 78.2% | viability, T/C [10] 63.7% | viability, T/C [11] 45.8% | viability, T/C [12] 94.2% | viability, T/C [13] 87.6% | viability, T/C [14] 78.1% | viability, T/C [15] 71.7% | viability, T/C [16] 63.4% | viability, T/C [17] 42.5% | viability, T/C [18] 87.4% | viability, T/C [19] 84.5% | viability, T/C [20] 71.2% | viability, T/C [21] 69.7% | viability, T/C [22] 60.6% | viability, T/C [23] 45.4% | viability, T/C [24] 79.1% | viability, T/C [25] 79.4% | viability, T/C [26] 64.9% | viability, T/C [27] 58.6% | viability, T/C [28] 44.8% | viability, T/C [29] 32.5% | viability, T/C [30] 12.7%
5.18: pIC50 [2]
5.71: pIC50 [4]
active: viability, T/C [31] 8.68% | viability, T/C [32] 5% | viability, T/C [33] 3.29% | viability, T/C [34] 2.26% | viability, T/C [35] 1.29%
> 7.50: pIC50 [5]

CC(=O)Nc1cccc(-n2c(=O)n(C3CC3)c(=O)c3c(Nc4ccc(I)cc4F)n(C)c(=O)c(C)c32)c1 + COc1cc2nc(C)nc(NC(C)c3cc(N)cc(C(F)(F)F)c3)c2cc1OC1CCOC1
9.04: pIC50 [4]
8.39: pIC50 [1]
active: viability, T/C (second compound 10 µM, first compound 0.001 µM) 9.44% | viability, T/C (second compound 10 µM, first compound 0.00316 µM) 3.96% | viability, T/C (second compound 10 µM, first compound 0.01 µM) 6.23% | viability, T/C [30] 1.76%
8.73: pIC50 [3]
inactive: viability, T/C (second compound 0.1 µM, first compound 0.0001 µM) 88.3% | viability, T/C (second compound 0.1 µM, first compound 0.000316 µM) 85.3% | viability, T/C (second compound 0.1 µM, first compound 0.001 µM) 65% | viability, T/C (second compound 0.1 µM, first compound 0.00316 µM) 51.6% | viability, T/C (second compound 0.1 µM, first compound 0.01 µM) 43.9% | viability, T/C [6] 30.9% | viability, T/C (second compound 0.316 µM, first compound 0.0001 µM) 84.9% | viability, T/C (second compound 0.316 µM, first compound 0.000316 µM) 77.5% | viability, T/C (second compound 0.316 µM, first compound 0.001 µM) 60.7% | viability, T/C (second compound 0.316 µM, first compound 0.00316 µM) 49.7% | viability, T/C (second compound 0.316 µM, first compound 0.01 µM) 41.9% | viability, T/C [12] 31.6% | viability, T/C (second compound 1 µM, first compound 0.0001 µM) 82.6% | viability, T/C (second compound 1 µM, first compound 0.000316 µM) 70.9% | viability, T/C (second compound 1 µM, first compound 0.001 µM) 54.6% | viability, T/C (second compound 1 µM, first compound 0.00316 µM) 44.1% | viability, T/C (second compound 1 µM, first compound 0.01 µM) 38.4% | viability, T/C [18] 29.8% | viability, T/C (second compound 3.16 µM, first compound 0.0001 µM) 75.4% | viability, T/C (second compound 3.16 µM, first compound 0.000316 µM) 62.4% | viability, T/C (second compound 3.16 µM, first compound 0.001 µM) 49.3% | viability, T/C (second compound 3.16 µM, first compound 0.00316 µM) 36.4% | viability, T/C (second compound 3.16 µM, first compound 0.01 µM) 33.5% | viability, T/C [24] 25.4% | viability, T/C (second compound 10 µM, first compound 0.0001 µM) 14% | viability, T/C (second compound 10 µM, first compound 0.000316 µM) 13.4%
8.49: pIC50 [2]
> 10.00: pIC50 [5]

O=C(c1cc(Cc2n[nH]c(=O)c3ccccc23)ccc1F)N1CCN(C(=O)C2CC2)CC1
< 5.00: pIC50 (curve of compound)
inactive: viability, T/C (compound 0.0316 µM) 107% [middle of 5 runs] | viability, T/C (compound 0.1 µM) 106% [middle of 5 runs] | viability, T/C (compound 0.316 µM) 102% [middle of 5 runs] | viability, T/C (compound 1 µM) 107% [middle of 5 runs] | viability, T/C (compound 3.16 µM) 105% [middle of 5 runs] | viability, T/C (compound 10 µM) 96.7% [middle of 5 runs]

COC(=O)c1ccc2c(C(=Nc3ccc(N(C)C(=O)CN4CCN(C)CC4)cc3)c3ccccc3)c(O)[nH]c2c1 + CNCc1ccccc1-c1csc(C(C)Nc2nc(C)nc3cc(OC)c(OC)cc23)c1
> 7.50: pIC50 [4] | pIC50 [5]
inactive: viability, T/C [6] 95.2% | viability, T/C [7] 95.4% | viability, T/C [8] 86.6% | viability, T/C [9] 83.5% | viability, T/C [10] 50.3% | viability, T/C [12] 94.7% | viability, T/C [13] 88% | viability, T/C [14] 84.3% | viability, T/C [15] 73.1% | viability, T/C [16] 14.9% | viability, T/C [18] 84.7% | viability, T/C [19] 87.9% | viability, T/C [20] 77.3% | viability, T/C [21] 68% | viability, T/C [22] 65%
5.80: pIC50 [2]
active: viability, T/C [11] 0.35% | viability, T/C [17] 0.2% | viability, T/C [23] 0.24% | viability, T/C [24] 1% | viability, T/C [25] 0.73% | viability, T/C [26] 0.68% | viability, T/C [27] 1.02% | viability, T/C [28] 0.63% | viability, T/C [29] 0.32% | viability, T/C [30] 0.63% | viability, T/C [31] 0.51% | viability, T/C [32] 0.5% | viability, T/C [33] 0.37% | viability, T/C [34] 0.61% | viability, T/C [35] 0.3%
5.42: pIC50 [3]
5.49: pIC50 [1]
